Source: ChEMBL document CHEMBL1201862, “PubChem BioAssay data set” (2004)
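All cell lines were grown in 96-well plates and treated with compound for 48 hours. At the GI50, growth is halved.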 The source made the active and inactive calls. Rule as the data show it: active = GI50 up to about 1.1 µM and inactive = higher.

Experiments:
Assay in all cases: NCI tumour cell line growth inhibition, 48 h
[1] = system: SF-268
[2] = system: T47D
[3] = system: SN12C
[4] = system: SF-295
[5] = system: SK-MEL-2
[6] = system: SK-OV-3
[7] = system: 786-0
[8] = system: UACC-62
[9] = system: OVCAR-4
[10] = system: COLO 205
[11] = system: MDA-N
[12] = system: NCI-H460
[13] = system: SK-MEL-5
[14] = system: TK-10
[15] = system: SK-MEL-28
[16] = system: OVCAR-5
[17] = system: RXF 393
[18] = system: SW-620
[19] = system: UO-31
[20] = system: DU-145
[21] = system: Malme-3M
[22] = system: MOLT-4
[23] = system: ACHN
[24] = system: MDA-MB-435
[25] = system: MDA-MB-231
[26] = system: U-251
[27] = system: M14
[28] = system: HCT-15
[29] = system: UACC-257
[30] = system: HT-29
[31] = system: A549
[32] = system: HOP-62
[33] = system: K562
[34] = system: Hs-578T
[35] = system: HOP-92
[36] = system: IGROV-1
[37] = system: NCI/ADR-RES
[38] = system: RPMI-8226
[39] = system: LOX IMVI
[40] = system: EKVX
[41] = system: KM12
[42] = system: PC-3
[43] = system: A498
[44] = system: OVCAR-3
[45] = system: SR
[46] = system: HL-60
[47] = system: SNB-19
[48] = system: NCI-H522
[49] = system: CAKI-1
[50] = system: NCI-H23
[51] = system: NCI-H226
[52] = system: HCC 2998
[53] = system: SF-539
[54] = system: HCT-116
[55] = system: MCF7
[56] = system: SNB-75
[57] = system: BT-549
[58] = system: CCRF-CEM
[59] = system: OVCAR-8
[60] = system: M19-MEL
[61] = system: KM-20L2
[62] = system: DMS-114
[63] = system: LXFL 529
[64] = system: DLD-1
[65] = system: DMS-273
[66] = system: SNB-78

In the case of `COc1ccc([C@H]2CC(=O)C[C@H](c3ccc(OC)cc3)C23C(=O)c2ccccc2C3=O)cc1`, the GI50 [1] is reported as 6.76 µM (inactive), the GI50 [2] is reported as 4.31 µM (inactive) and the GI50 [3] is reported as 7.57 µM (inactive). The GI50 [4] was 3.95 µM (inactive), the GI50 [5] was 3.3 µM (inactive) and the GI50 [6] was 3.97 µM (inactive). The GI50 [7] was 5.57 µM (inactive), the GI50 [8] was 4 µM (inactive) and the GI50 [9] was 9.57 µM (inactive). The GI50 [10] was 2.64 µM (inactive), the GI50 [11] was 2.07 µM (inactive) and the GI50 [12] was 3.65 µM (inactive). For the same compound, the GI50 [13] was 3.46 µM (inactive), the GI50 [14] was 7.82 µM (inactive) and the GI50 [15] was 9.64 µM (inactive). For the same compound, the GI50 [16] was 12.6 µM (inactive), the GI50 [17] was 2.92 µM (inactive) and the GI50 [18] was 3.53 µM (inactive). The GI50 [19] was 17.3 µM (inactive), the GI50 [20] was 16.4 µM (inactive) and the GI50 [21] was 5 µM (inactive). The GI50 [22] was 4.79 µM (inactive), the GI50 [23] was 16.6 µM (inactive) and the GI50 [24] was 1.95 µM (inactive). For the same compound, the GI50 [25] was 2.39 µM (inactive), the GI50 [26] was 4.24 µM (inactive) and the GI50 [27] was 6.34 µM (inactive). The GI50 [28] was 4.02 µM, the GI50 [29] was 2.29 µM (inactive) and the GI50 [30] was 3.46 µM (inactive). For the same compound, the GI50 [31] was 5.97 µM (inactive), the GI50 [32] was 6.25 µM (inactive) and the GI50 [33] was 3.52 µM (inactive). For the same compound, the GI50 [34] was 4.78 µM (inactive), the GI50 [35] was 5.74 µM (inactive) and the GI50 [36] was 5.28 µM (inactive). For the same compound, the GI50 [37] was 1.94 µM (inactive), the GI50 [38] was 4.54 µM (inactive) and the GI50 [39] was 4.16 µM (inactive). For the same compound, the GI50 [40] was 4.59 µM (inactive), the GI50 [41] was 4.13 µM (inactive) and the GI50 [42] was 4.21 µM (inactive). The GI50 [43] was > 100 µM (inactive), the GI50 [44] was 2.97 µM (inactive) and the GI50 [45] was 3.28 µM (inactive). For the same compound, the GI50 [46] was 2.33 µM (inactive), the GI50 [47] was 5.35 µM (inactive) and the GI50 [48] was 3.16 µM (inactive). The GI50 [49] was 3.06 µM (inactive), the GI50 [50] was 26.1 µM (inactive) and the GI50 [51] was 6.11 µM (inactive). For the same compound, the GI50 [52] was 8.55 µM (inactive), the GI50 [53] was 5.04 µM (inactive) and the GI50 [54] was 4.46 µM (inactive). The GI50 [55] was 7.06 µM (inactive), the GI50 [56] was 2.9 µM (inactive) and the GI50 [57] was 5.65 µM (inactive). For the same compound, the GI50 [58] was 3.68 µM (inactive) and the GI50 [59] was 9.75 µM (inactive).

`O=C(CC(=O)C(=O)CC(=O)OCc1ccccc1)OCc1ccccc1` was tested, and the GI50 [1] was 32.3 µM (inactive), the GI50 [3] was 57.1 µM (inactive) and the GI50 [60] was > 100 µM (inactive). The GI50 [5] was > 100 µM (inactive), the GI50 [6] was > 100 µM (inactive) and the GI50 [7] was > 100 µM (inactive). For the same compound, the GI50 [8] was 84.9 µM (inactive), the GI50 [9] was 50.5 µM (inactive) and the GI50 [10] was > 100 µM (inactive). For the same compound, the GI50 [13] was 66.1 µM (inactive), the GI50 [14] was > 100 µM (inactive) and the GI50 [15] was 67.6 µM (inactive). For the same compound, the GI50 [16] was > 100 µM (inactive), the GI50 [17] was 75 µM (inactive) and the GI50 [18] was 88.9 µM (inactive). The GI50 [19] was 27.3 µM (inactive), the GI50 [21] was > 100 µM (inactive) and the GI50 [61] was > 100 µM (inactive). For the same compound, the GI50 [22] was 64.3 µM (inactive), the GI50 [26] was 50.9 µM (inactive) and the GI50 [27] was > 100 µM (inactive). For the same compound, the GI50 [28] was greater than 100 µM, the GI50 [30] was > 100 µM (inactive) and the GI50 [31] was 60.8 µM (inactive). For the same compound, the GI50 [32] was 56.2 µM (inactive), the GI50 [33] was 58.6 µM (inactive) and the GI50 [62] was > 100 µM (inactive). The GI50 [35] was 58.1 µM (inactive), the GI50 [36] was 78.3 µM (inactive) and the GI50 [38] was 45.8 µM (inactive). The GI50 [40] was > 100 µM (inactive), the GI50 [43] was > 100 µM (inactive) and the GI50 [45] was 70.8 µM (inactive). For the same compound, the GI50 [46] was 63.4 µM (inactive), the GI50 [63] was > 100 µM (inactive) and the GI50 [47] was 43.4 µM (inactive). The GI50 [48] was 31.3 µM (inactive), the GI50 [49] was > 100 µM (inactive) and the GI50 [50] was 53.2 µM (inactive). The GI50 [52] was > 100 µM (inactive), the GI50 [53] was 53.5 µM (inactive) and the GI50 [54] was 44.6 µM (inactive). The GI50 [64] was 60.8 µM (inactive), the GI50 [56] was 61.5 µM (inactive) and the GI50 [58] was 49.2 µM (inactive). The GI50 [59] was > 100 µM (inactive).

With `OC1=CN=C(C2CC2)Oc2ccccc21` the GI50 [1] was > 100 µM (inactive), the GI50 [3] was > 100 µM (inactive) and the GI50 [4] was 83.2 µM (inactive). For the same compound, the GI50 [60] was > 100 µM (inactive), the GI50 [5] was > 100 µM (inactive) and the GI50 [6] was > 100 µM (inactive). The GI50 [7] was > 100 µM (inactive), the GI50 [8] was 98.6 µM (inactive) and the GI50 [9] was 85.3 µM (inactive). The GI50 [10] was > 100 µM (inactive), the GI50 [12] was > 100 µM (inactive) and the GI50 [13] was > 100 µM (inactive). For the same compound, the GI50 [14] was > 100 µM (inactive), the GI50 [15] was > 100 µM (inactive) and the GI50 [17] was > 100 µM (inactive). For the same compound, the GI50 [18] was > 100 µM (inactive), the GI50 [19] was 25.7 µM (inactive) and the GI50 [21] was > 100 µM (inactive). The GI50 [61] was > 100 µM (inactive), the GI50 [22] was > 100 µM (inactive) and the GI50 [23] was > 100 µM (inactive). The GI50 [26] was > 100 µM (inactive), the GI50 [27] was > 100 µM (inactive) and the GI50 [28] was greater than 100 µM. The GI50 [29] was > 100 µM (inactive), the GI50 [30] was > 100 µM (inactive) and the GI50 [31] was > 100 µM (inactive). For the same compound, the GI50 [32] was > 100 µM (inactive), the GI50 [33] was 84.9 µM (inactive) and the GI50 [62] was 41 µM (inactive). For the same compound, the GI50 [35] was 96.2 µM (inactive), the GI50 [65] was > 100 µM (inactive) and the GI50 [36] was > 100 µM (inactive). For the same compound, the GI50 [38] was > 100 µM (inactive), the GI50 [39] was > 100 µM (inactive) and the GI50 [40] was > 100 µM (inactive). For the same compound, the GI50 [41] was > 100 µM (inactive), the GI50 [43] was > 100 µM (inactive) and the GI50 [44] was > 100 µM (inactive). For the same compound, the GI50 [46] was > 100 µM (inactive), the GI50 [63] was > 100 µM (inactive) and the GI50 [47] was > 100 µM (inactive). The GI50 [50] was > 100 µM (inactive), the GI50 [66] was > 100 µM (inactive) and the GI50 [51] was 15.5 µM (inactive). The GI50 [52] was > 100 µM (inactive), the GI50 [53] was > 100 µM (inactive) and the GI50 [54] was > 100 µM (inactive). For the same compound, the GI50 [64] was > 100 µM (inactive), the GI50 [56] was > 100 µM (inactive) and the GI50 [58] was > 100 µM (inactive). The GI50 [59] was > 100 µM (inactive).
